According to PMC7692329, “Inhibitory Effect of AB-PINACA, Indazole Carboxamide Synthetic Cannabinoid, on Human Major Drug-Metabolizing Enzymes and Transporters” (Pharmaceutics, 2020):
Where two headings read alike, the source gives them in different places.

How the values were obtained:
[1] = target: T1, OCT1 (Homo sapiens, UniProt O15245); assay: OCT1-mediated methyl-4-phenylpyridinium uptake in HEK293-OCT1 cells; type: in vitro ADME
T1 construct: host or cells: HEK293
T1 sequence (O15245 1-554): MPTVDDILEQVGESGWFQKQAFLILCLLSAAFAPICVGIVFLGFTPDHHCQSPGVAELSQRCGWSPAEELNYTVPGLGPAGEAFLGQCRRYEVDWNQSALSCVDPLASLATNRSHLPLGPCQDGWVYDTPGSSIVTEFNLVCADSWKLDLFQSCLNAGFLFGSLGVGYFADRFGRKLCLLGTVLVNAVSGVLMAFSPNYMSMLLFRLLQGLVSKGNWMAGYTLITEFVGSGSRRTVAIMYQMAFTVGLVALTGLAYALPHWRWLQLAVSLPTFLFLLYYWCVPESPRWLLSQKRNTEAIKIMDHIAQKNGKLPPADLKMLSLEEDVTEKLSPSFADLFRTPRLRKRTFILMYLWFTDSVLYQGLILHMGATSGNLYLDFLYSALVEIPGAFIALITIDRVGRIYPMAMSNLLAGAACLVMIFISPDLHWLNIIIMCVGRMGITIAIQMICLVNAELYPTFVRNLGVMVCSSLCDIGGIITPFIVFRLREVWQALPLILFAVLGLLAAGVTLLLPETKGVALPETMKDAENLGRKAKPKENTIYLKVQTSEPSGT

[2] = target: T2, OCT2 (Homo sapiens, UniProt O15244); assay: OCT2-mediated methyl-4-phenylpyridinium uptake in HEK293-OCT2 cells; type: in vitro ADME
T2 construct: host or cells: HEK293

[3] = target: T3, OATP1B3 (Homo sapiens, UniProt Q9NPD5); assay: OATP1B3-mediated estradiol-17β-D-glucuronide uptake in HEK293-OATP1B3 cells; type: in vitro ADME
T3 construct: host or cells: HEK293

[4] = target: T4, P-gp (Homo sapiens, UniProt P08183); assay: P-gp-mediated B to A transport of digoxin in LLC-PK1-MDR1 cells; type: in vitro ADME
T4 construct: host or cells: LLC-PK1

[5] = target: T5, BCRP (Homo sapiens, UniProt Q9UNQ0); assay: BCRP-mediated B to A transport of estrone-3-sulfate in LLC-PK1-BCRP cells; type: in vitro ADME
T5 construct: host or cells: LLC-PK1

[6] = tested on: human cannabinoid receptor type 1 (hCB1); settings: cited from earlier work
[7] = tested on: human cannabinoid receptor type 2 (hCB2); settings: cited from earlier work
[8] = set-up: method as in PMID 26105953; settings: cited from earlier work
[9] = 25 of 58 cases; dose regimen not specified; cited from earlier work
[10] = child, chewing an AB-PINACA contaminated cigarette; cited from earlier work
[11] = target: CYP2B6 (Homo sapiens, UniProt P20813); assay: CYP2B6 bupropion hydroxylase inhibition in ultrapooled human liver microsomes
[12] = target: CYP2A6 (Homo sapiens, UniProt P11509); assay: CYP2A6 coumarin 7-hydroxylase inhibition in ultrapooled human liver microsomes
[13] = target: T6, CYP2C8 (Homo sapiens, UniProt P10632); assay: CYP2C8 amodiaquine N-deethylase inhibition in ultrapooled human liver microsomes; settings: for IC50: CYP2C8 amodiaquine N-deethylase, ultrapooled human liver microsomes
T6 sequence (P10632 1-490): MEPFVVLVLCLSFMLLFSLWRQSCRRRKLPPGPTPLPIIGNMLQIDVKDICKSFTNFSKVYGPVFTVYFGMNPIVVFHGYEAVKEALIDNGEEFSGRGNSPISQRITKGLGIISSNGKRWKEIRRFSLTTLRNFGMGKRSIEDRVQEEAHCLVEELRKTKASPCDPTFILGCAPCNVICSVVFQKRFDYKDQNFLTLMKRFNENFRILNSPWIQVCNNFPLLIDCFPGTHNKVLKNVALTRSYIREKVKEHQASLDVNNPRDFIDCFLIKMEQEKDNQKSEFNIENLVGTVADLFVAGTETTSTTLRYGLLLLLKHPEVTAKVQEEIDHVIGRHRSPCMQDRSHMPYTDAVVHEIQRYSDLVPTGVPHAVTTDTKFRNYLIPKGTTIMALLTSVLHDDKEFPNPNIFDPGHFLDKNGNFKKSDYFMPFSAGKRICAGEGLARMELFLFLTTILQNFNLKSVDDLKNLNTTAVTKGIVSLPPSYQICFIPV

[14] = target: CYP2D6 (Homo sapiens, UniProt P10635); assay: CYP2D6 bufuralol 1'-hydroxylase inhibition in ultrapooled human liver microsomes
[15] = target: CYP2C9 (Homo sapiens, UniProt P11712); assay: CYP2C9 diclofenac 4'-hydroxylase inhibition in ultrapooled human liver microsomes; settings: for IC50: CYP2C9 diclofenac 4'-hydroxylase, ultrapooled human liver microsomes
[16] = target: UGT2B7 (Homo sapiens, UniProt P16662); assay: UGT2B7 naloxone 3-β-D-glucuronidation inhibition in ultrapooled human liver microsomes
[17] = target: UGT1A4 (Homo sapiens, UniProt P22310); assay: UGT1A4 trifluoperazine N-glucuronidation inhibition in ultrapooled human liver microsomes
[18] = target: UGT1A9 (Homo sapiens, UniProt O60656); assay: UGT1A9 mycophenolic acid glucuronidation inhibition in ultrapooled human liver microsomes
[19] = target: UGT1A3 (Homo sapiens, UniProt P35503); assay: UGT1A3 chenodeoxycholic acid 24-acyl-β-glucuronidation inhibition in ultrapooled human liver microsomes
[20] = target: CYP3A4 (Homo sapiens, UniProt P08684); assay: CYP3A4 midazolam 1'-hydroxylase inhibition and inactivation kinetics in ultrapooled human liver microsomes; settings: for IC50: CYP3A4 midazolam 1'-hydroxylase, ultrapooled human liver microsomes
[21] = IC50 With NADPH Preincubation, 30-min preincubation with NADPH
[22] = IC50 Without NADPH Preincubation, without NADPH preincubation
[23] = human, liver microsomes, pH 7.4, probe midazolam

Chain of CYP3A4 (P08684 whole entry): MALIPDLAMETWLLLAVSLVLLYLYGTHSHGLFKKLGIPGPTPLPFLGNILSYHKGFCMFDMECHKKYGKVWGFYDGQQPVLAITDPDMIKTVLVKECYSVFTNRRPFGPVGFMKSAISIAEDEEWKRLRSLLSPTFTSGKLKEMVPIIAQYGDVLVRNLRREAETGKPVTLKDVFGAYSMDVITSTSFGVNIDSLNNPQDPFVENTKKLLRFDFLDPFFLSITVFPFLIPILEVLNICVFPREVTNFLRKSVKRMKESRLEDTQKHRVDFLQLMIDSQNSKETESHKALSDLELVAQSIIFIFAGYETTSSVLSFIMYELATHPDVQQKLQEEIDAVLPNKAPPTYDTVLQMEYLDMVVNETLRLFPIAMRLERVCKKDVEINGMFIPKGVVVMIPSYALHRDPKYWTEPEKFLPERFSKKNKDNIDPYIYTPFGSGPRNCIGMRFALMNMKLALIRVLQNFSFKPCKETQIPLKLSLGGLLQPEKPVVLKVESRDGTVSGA
Chain of CYP2C9 (P11712 whole entry): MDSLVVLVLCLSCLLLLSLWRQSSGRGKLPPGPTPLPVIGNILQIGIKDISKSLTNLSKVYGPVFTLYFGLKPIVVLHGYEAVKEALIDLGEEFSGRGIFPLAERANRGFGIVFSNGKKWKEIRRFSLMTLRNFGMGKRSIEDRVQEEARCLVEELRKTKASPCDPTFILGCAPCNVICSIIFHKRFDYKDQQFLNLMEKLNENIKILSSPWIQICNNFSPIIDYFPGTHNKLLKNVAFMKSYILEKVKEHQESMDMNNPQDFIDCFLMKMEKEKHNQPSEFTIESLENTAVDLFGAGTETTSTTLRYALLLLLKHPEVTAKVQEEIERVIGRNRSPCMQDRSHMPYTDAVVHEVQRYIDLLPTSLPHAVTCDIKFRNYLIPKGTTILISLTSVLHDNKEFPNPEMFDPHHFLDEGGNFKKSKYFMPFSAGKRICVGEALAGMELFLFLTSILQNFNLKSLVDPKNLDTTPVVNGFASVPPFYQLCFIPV
Chain of CYP2A6 (P11509 whole entry): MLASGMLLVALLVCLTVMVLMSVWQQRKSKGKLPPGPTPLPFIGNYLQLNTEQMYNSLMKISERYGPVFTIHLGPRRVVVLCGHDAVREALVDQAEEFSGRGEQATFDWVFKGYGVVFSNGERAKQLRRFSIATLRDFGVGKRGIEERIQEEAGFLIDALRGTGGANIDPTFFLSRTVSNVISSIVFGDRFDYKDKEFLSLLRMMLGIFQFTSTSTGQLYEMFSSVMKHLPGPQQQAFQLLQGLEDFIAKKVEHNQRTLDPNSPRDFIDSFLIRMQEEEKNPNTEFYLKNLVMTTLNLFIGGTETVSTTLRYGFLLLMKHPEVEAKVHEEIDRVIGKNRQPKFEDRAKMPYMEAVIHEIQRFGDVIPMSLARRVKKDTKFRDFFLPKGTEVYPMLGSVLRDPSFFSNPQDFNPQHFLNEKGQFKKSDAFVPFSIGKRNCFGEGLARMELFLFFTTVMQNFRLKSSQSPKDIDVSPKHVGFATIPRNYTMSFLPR
Chain of CYP2B6 (P20813 whole entry): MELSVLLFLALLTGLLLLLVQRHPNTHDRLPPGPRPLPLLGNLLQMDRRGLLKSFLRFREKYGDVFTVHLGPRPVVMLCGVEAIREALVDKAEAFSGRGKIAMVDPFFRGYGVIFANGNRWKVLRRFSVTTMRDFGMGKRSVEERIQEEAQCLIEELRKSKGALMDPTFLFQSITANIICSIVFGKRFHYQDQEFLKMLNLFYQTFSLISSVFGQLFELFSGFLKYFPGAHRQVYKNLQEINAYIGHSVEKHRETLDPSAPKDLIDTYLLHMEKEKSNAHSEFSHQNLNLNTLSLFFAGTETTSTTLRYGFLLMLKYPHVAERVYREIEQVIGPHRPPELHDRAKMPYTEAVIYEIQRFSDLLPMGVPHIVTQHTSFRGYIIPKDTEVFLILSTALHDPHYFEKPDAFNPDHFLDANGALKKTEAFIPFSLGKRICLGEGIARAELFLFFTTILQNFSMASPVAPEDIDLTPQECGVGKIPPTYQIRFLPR
Chain of CYP2D6 (P10635 whole entry): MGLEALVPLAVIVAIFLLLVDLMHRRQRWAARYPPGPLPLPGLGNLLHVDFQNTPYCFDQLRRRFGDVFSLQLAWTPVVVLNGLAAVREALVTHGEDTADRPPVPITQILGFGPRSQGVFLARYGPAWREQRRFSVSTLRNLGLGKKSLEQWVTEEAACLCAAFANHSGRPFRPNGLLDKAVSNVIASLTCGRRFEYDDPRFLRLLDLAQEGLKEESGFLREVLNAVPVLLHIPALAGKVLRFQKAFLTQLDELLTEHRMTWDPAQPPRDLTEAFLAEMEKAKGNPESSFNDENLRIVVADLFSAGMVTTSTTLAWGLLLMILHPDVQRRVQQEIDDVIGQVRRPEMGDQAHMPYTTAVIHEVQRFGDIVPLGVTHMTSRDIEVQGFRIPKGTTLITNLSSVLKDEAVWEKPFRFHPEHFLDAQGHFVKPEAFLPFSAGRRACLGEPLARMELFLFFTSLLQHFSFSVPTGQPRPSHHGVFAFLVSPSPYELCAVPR
T3 sequence (Q9NPD5 whole entry): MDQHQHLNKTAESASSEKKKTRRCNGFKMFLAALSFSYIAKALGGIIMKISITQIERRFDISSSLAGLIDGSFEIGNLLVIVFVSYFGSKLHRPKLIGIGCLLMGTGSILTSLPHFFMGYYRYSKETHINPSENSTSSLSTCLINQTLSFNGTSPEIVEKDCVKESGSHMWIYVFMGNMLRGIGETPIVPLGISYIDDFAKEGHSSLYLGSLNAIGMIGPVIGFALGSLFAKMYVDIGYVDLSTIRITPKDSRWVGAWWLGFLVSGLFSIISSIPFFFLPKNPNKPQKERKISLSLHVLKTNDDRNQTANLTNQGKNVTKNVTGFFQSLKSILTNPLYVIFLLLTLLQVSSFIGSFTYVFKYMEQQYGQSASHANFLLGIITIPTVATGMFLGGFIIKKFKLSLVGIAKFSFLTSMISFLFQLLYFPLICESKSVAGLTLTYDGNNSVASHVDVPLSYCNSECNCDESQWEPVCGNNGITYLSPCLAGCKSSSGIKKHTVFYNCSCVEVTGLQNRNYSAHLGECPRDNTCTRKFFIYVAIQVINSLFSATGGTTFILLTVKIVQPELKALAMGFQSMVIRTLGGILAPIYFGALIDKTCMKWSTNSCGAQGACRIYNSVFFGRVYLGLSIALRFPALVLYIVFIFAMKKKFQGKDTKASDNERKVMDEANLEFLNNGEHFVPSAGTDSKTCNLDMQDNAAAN
T4 sequence (P08183 whole entry): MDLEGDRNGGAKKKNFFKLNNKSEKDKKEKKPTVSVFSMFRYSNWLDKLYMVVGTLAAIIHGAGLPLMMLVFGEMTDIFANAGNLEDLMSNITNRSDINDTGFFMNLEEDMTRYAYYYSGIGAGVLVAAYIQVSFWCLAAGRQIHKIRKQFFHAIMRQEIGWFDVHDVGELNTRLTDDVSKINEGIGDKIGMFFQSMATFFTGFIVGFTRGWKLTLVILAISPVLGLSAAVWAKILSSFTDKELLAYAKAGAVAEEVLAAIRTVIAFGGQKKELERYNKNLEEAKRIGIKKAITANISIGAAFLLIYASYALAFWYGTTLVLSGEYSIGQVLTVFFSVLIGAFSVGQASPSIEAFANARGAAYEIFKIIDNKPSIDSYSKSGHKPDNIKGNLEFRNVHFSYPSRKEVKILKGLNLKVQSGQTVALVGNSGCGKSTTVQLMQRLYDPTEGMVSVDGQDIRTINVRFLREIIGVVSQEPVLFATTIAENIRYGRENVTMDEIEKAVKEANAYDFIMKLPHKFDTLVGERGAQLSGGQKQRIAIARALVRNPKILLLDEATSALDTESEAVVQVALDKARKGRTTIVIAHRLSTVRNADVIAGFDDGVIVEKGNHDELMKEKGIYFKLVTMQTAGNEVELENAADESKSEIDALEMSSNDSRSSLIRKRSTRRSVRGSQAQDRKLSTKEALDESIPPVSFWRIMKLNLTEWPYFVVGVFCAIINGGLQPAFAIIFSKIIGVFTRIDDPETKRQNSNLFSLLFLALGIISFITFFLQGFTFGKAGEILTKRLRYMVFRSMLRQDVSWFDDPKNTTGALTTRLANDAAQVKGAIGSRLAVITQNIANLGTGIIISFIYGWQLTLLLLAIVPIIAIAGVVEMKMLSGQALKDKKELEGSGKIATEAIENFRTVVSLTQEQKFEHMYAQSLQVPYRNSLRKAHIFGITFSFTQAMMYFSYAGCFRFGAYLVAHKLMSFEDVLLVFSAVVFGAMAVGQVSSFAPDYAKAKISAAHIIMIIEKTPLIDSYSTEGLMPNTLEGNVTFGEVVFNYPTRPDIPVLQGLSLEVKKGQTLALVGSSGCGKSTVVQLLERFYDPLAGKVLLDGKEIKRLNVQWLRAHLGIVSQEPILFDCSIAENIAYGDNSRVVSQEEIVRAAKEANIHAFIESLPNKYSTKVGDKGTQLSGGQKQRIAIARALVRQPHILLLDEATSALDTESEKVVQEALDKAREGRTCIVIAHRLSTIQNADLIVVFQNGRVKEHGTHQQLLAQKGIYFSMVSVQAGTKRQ
T2 sequence (O15244 whole entry): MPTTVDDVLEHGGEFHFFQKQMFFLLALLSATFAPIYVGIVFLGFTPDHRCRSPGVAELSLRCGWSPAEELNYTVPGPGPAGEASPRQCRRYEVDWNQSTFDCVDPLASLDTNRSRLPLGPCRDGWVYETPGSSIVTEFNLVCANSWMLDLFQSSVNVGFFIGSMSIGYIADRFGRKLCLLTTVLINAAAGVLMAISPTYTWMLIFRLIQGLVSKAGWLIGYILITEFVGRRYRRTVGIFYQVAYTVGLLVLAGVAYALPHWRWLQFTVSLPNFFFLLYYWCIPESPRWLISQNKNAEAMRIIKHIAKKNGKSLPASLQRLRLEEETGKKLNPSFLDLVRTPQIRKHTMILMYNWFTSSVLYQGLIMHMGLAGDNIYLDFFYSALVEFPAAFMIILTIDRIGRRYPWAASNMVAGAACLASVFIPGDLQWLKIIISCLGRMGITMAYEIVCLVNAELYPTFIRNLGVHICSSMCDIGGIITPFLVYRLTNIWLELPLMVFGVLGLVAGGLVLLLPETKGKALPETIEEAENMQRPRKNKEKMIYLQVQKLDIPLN

CCCCCn1nc(C(=O)N[C@H](C(N)=O)C(C)C)c2ccccc21 [AB-PINACA, N-[(2S)-1-amino-3-methyl-1-oxobutan-2-yl]-1-pentyl-1H-indazole-3-carboxamide]
IC50 [1]: 136 µM
Ki [1]: 146 µM
Mode of Inhibition, OCT1 ([1]; methyl-4-phenylpyridinium uptake, HEK293-OCT1 cells): mixed mode of inhibition
IC50 [2]: > 250 µM
IC50 [3]: > 250 µM
IC50 [4]: > 100 µM
IC50 [5]: > 100 µM
fold higher in vitro binding affinity to hCB1 compared with Δ9-THC [6]: 23.3 fold
Ki ([6]; read-out: receptor binding affinity to hCB1 (Ki)): 0.00287 µM
fold higher in vitro binding affinity to hCB2 compared with Δ9-THC [7]: 40.9 fold
Ki ([7]; read-out: receptor binding affinity to hCB2 (Ki)): 0.00088 µM
substitution for Δ9-THC [8]: substituted fully and dose dependently
blood (plasma) concentration in suspected impaired driving cases [9]: 1.8 to 127 nM
serum level [10]: 42 ng/mL
IC50 [11]: > 100 µM
IC50 ([11]; read-out: IC50 With NADPH Preincubation, CYP2B6 bupropion hydroxylase, ultrapooled human liver microsomes, 30-min preincubation with NADPH): > 100 µM
IC50 [12]: > 100 µM
IC50 ([12]; read-out: IC50 Without NADPH Preincubation, CYP2A6 coumarin 7-hydroxylase, ultrapooled human liver microsomes, without NADPH preincubation): > 100 µM
Ki [13]: 16.9 µM
IC50 [13, 21]: 30.1 µM
IC50 [13, 22]: 32.5 µM
Mode of Inhibition, CYP2C8 ([13]; amodiaquine N-deethylation, human liver microsomes): mixed mode of inhibition
IC50 shift at 15 min ([13]; human, liver microsomes, pH 7.4, probe amodiaquine): 1.1
IC50 [14]: > 100 µM
IC50 ([14]; read-out: IC50 With NADPH Preincubation, CYP2D6 bufuralol 1'-hydroxylase, ultrapooled human liver microsomes, 30-min preincubation with NADPH): > 100 µM
IC50 [15, 21]: 19.3 µM
IC50 [15, 22]: 17.4 µM
Ki ([15]; Ki, CYP2C9, diclofenac 4'-hydroxylation, human liver microsomes, Lineweaver–Burk and Dixon plots): 16.1 µM
IC50 shift at 15 min ([15]; human, liver microsomes, pH 7.4, probe diclofenac): 0.9
IC50 [16]: > 100 µM
IC50 [17]: > 100 µM
IC50 [18]: 65.2 µM
IC50 [19]: 84.1 µM
Ki [20]: 17.6 µM
IC50 [20, 21]: 24.4 µM
IC50 [20, 22]: 66.4 µM
IC50 shift at 15 min [20, 23]: 2.7
kinact [20, 23]: 0.000674 s⁻¹
Mode of Inhibition, CYP3A4 ([20]; midazolam 1'-hydroxylation, human liver microsomes): time-dependent inhibition
